Experimental data taken from patent US20080312229A1, “Organic Compounds” (Novartis AG, priority 2005, published 2008).

Target: T1, human CRTh2 (Homo sapiens, UniProt Q9Y5Y4)
T1 construct: expressed in transfected cells; host or cells: CHO.K1 (Chinese Hamster Ovary) cells, membrane preparation
T1 sequence (Q9Y5Y4 1-395): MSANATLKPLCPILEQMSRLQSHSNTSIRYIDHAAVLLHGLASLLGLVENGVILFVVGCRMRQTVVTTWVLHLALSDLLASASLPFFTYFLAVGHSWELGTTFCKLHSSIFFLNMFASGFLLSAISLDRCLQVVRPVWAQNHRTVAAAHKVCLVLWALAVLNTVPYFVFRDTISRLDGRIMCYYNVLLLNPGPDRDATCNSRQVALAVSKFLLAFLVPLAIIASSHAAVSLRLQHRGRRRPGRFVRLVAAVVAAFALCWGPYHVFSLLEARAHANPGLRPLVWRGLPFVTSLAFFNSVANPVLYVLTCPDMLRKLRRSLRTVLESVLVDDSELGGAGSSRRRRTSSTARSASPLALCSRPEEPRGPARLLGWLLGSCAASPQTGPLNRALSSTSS
Assay: CRTh2 [3H]-PGD2 binding assay (called SPA binding assay; filtration binding protocol described)
Conditions: competition with [3H]-PGD2 (2.5 nM), CHO.K1-CRTh2 membranes
Experimental: The binding of CRTh2 modulators is determined using membranes prepared from human CRTh2-expressing Chinese Hamster Ovary cells (CHO.K1-CRTh2). To produce cell membranes CHO.K1-CRTh2 cells cultured in roller bottles are harvested using cell dissociation buffer (Invitrogen). The cells are pelleted by centrifugation (167 g, 5 min). The cell pellet is incubated in hypotonic buffer (15 mM Tris-OH, 2 mM MgCl2, 0.3 mM EDTA, 1 mM EGTA, 1× Complete™ tablet) at 4° C. for 30 min. At 4° C. cells are homogenized using a Polytron® (IKA Ultra Turrax T25) for 5 bursts of 1 second. The homogenate is centrifuged (Beckman Optima TM TL Ultracentrifuge, 48000 g, 30 min at 4° C.). […]
The binding of [^3H]-PGD2 (157 Ci/mmol) to CHO.K1-CRTh2 membranes is determined in the absence (total binding) and presence (non-specific binding) of unlabelled PGD2 (1 μM). […]
The plates are incubated at room temperature on a shaker for 1 hour, and then harvested (Tomtec Harvester 9600) onto GF/C filter plates using wash buffer (10 mM HEPES-KOH, pH 7.4). […] Plates are then counted using a Packard Top Count instrument, Plates are then read on the Packard Topcount with the 3H Scintillation program (1 min per well).
Ki (dissociation constant for the inhibition) values for the CRTh2 modulators are reported. Ki values are determined using Sigma Plot™ software, using the Cheng-Prussoff equation. […]

Work on `Cc1c(CC(=O)O)c2cccnc2n1CCc1ccccc1` [Example 1, (2-Methyl-1-phenethyl-1H-pyrrolo[2,3-b]pyridine-3-yl)-acetic acid] yielded a Ki of 716 nM.
